Several values for one entry are separate records, joined by “and”; a condition that tells them apart may be missing. Equal entries are not always repeated. Toxic doses and inconclusive results are not listed.
Tested on: L1210 leukemia ip in BDF1 mice, survival T/C
Assay: NCI In Vivo Anticancer Drug Screen. Data for tumor model L1210 Leukemia (intraperitoneal) in B6D2F1 (BDF1) mice
Settings: endpoint: mean survival time, higher = longer survival
Summary of the method: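 Value reflects the ratio of survival in compound-treated mice to survival in vehicle-treated controls, with both groups carrying the same transplanted tumor.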

[1] = dose: 25.0 mg/kg/injection, schedule: Q01DX009 (ip), vehicle: Klucel (hydroxypropylcellulose) (HPC)
[2] = dose: 50.0 mg/kg/injection, schedule: Q01DX009 (ip), vehicle: Klucel (hydroxypropylcellulose) (HPC)
[3] = dose: 100.0 mg/kg/injection, schedule: Q01DX009 (ip), vehicle: saline with Tween-80
[4] = dose: 100.0 mg/kg/injection, schedule: Q01DX009 (ip), vehicle: Klucel (hydroxypropylcellulose) (HPC)
[5] = dose: 100.0 mg/kg/injection, schedule: Q04DX003 (ip), vehicle: Klucel (hydroxypropylcellulose) (HPC)
[6] = dose: 200.0 mg/kg/injection, schedule: Q04DX003 (ip), vehicle: Klucel (hydroxypropylcellulose) (HPC)
[7] = dose: 400.0 mg/kg/injection, schedule: Q04DX003 (ip), vehicle: Klucel (hydroxypropylcellulose) (HPC)
[8] = dose: 25.0 mg/kg/injection, schedule: Q04DX003 (ip), vehicle: saline

With `CN=C(NC)c1ccc(NC(=O)c2ccc(C(=O)Nc3ccc(C(=NC)NC)cc3)cc2)cc1` the T/C (dose: 0.23 mg/kg/injection, schedule: Q01DX Z (ip), vehicle: methylcellulose (MC)) was 96 % of control and 124 % of control, the T/C (dose: 0.9 mg/kg/injection, schedule: Q01DX Z (ip), vehicle: methylcellulose (MC)) was 110 % of control and 177 % of control and 205 % of control and the T/C (dose: 1.87 mg/kg/injection, schedule: Q01DX Z (ip), vehicle: methylcellulose (MC)) was 150 % of control. The T/C (dose: 1.9 mg/kg/injection, schedule: Q01DX Z (ip), vehicle: methylcellulose (MC)) was 124 % of control, the T/C (dose: 3.75 mg/kg/injection, schedule: Q01DX Z (ip), vehicle: methylcellulose (MC)) was 161 % of control and the T/C (dose: 7.5 mg/kg/injection, schedule: Q01DX Z (ip), vehicle: methylcellulose (MC)) was 160 % of control. For the same compound, the T/C (dose: 15.0 mg/kg/injection, schedule: Q01DX Z (ip), vehicle: methylcellulose (MC)) was 124 % of control, the T/C (dose: 15.0 mg/kg/injection, schedule: Q01DX Z (oral), vehicle: carboxymethylcellulose (CMC)) was 111 % of control and the T/C (dose: 30.0 mg/kg/injection, schedule: Q01DX Z (ip), vehicle: methylcellulose (MC)) was 108 % of control. For the same compound, the T/C (dose: 30.0 mg/kg/injection, schedule: Q01DX Z (oral), vehicle: carboxymethylcellulose (CMC)) was 102 % of control, the T/C (dose: 60.0 mg/kg/injection, schedule: Q01DX Z (oral), vehicle: carboxymethylcellulose (CMC)) was 107 % of control and the T/C (dose: 120.0 mg/kg/injection, schedule: Q01DX Z (oral), vehicle: carboxymethylcellulose (CMC)) was 96 % of control. For the same compound, the T/C (dose: 240.0 mg/kg/injection, schedule: Q01DX Z (oral), vehicle: carboxymethylcellulose (CMC)) was 115 % of control and the T/C (dose: 480.0 mg/kg/injection, schedule: Q01DX Z (oral), vehicle: carboxymethylcellulose (CMC)) was 113 % of control.

For `CC#C[P+](Cc1ccccc1)(c1ccccc1)c1ccccc1`, the T/C (dose: 9.5 mg/kg/injection, schedule: Q01DX001 (ip), vehicle: saline) was 108 % of control and the T/C (dose: 19.0 mg/kg/injection, schedule: Q01DX001 (ip), vehicle: saline) was 117 % of control.

In the case of `CC(=O)[O][Pb]([CH2]CC(C)C)([CH2]CC(C)C)[CH2]CC(C)C`, the T/C (dose: 0.78 mg/kg/injection, schedule: Q01DX009 (ip), vehicle: saline with Tween-80) is reported as 98 % of control, the T/C (dose: 0.78 mg/kg/injection, schedule: Q04DX002 (ip), vehicle: saline with Tween-80) is reported as 95 % of control and the T/C (dose: 1.56 mg/kg/injection, schedule: Q01DX009 (ip), vehicle: saline with Tween-80) is reported as 97 % of control. The T/C (dose: 1.56 mg/kg/injection, schedule: Q04DX002 (ip), vehicle: saline with Tween-80) was 92 % of control, the T/C (dose: 3.12 mg/kg/injection, schedule: Q01DX009 (ip), vehicle: saline with Tween-80) was 95 % of control and the T/C (dose: 3.12 mg/kg/injection, schedule: Q04DX002 (ip), vehicle: saline with Tween-80) was 92 % of control.

With `O=c1c(O)c(-c2ccc(Cl)cc2)oc2cc(O)ccc12` the T/C (dose: 100.0 mg/kg/injection, schedule: Q01DX001 (ip), vehicle: other) was 101 % of control, the T/C (dose: 200.0 mg/kg/injection, schedule: Q01DX001 (ip), vehicle: other) was 101 % of control and the T/C (dose: 400.0 mg/kg/injection, schedule: Q01DX001 (ip), vehicle: other) was 93 % of control.

For `CC(=N\O)/C(=N/O)c1ccc(O)cc1`, the T/C (dose: 5.0 mg/kg/injection, schedule: Q01DX001 (ip), vehicle: saline) was 97 % of control, the T/C (dose: 10.0 mg/kg/injection, schedule: Q01DX001 (ip), vehicle: saline) was 100 % of control and the T/C (dose: 20.0 mg/kg/injection, schedule: Q01DX001 (ip), vehicle: saline) was 97 % of control.

With `COc1cc2c(cc1OC)C1(C(=O)c3ccc(OC)c(OC)c3C1=O)N(C(C)=O)C=C2` (centres undefined) the T/C (dose: 12.5 mg/kg/injection, schedule: Q01DX009 (ip), vehicle: Klucel (hydroxypropylcellulose) (HPC)) was 95 % of control, the T/C [1] was 103 % of control and the T/C [2] was 100 % of control.

In the case of `NCCCCC(N)C(=O)NCCCNCCCCNCCCNC(=O)C(N)CCCCN` (centres undefined), the T/C (dose: 3.0 mg/kg/injection, schedule: Q01DX Z (ip), vehicle: saline) is reported as 104 % of control, the T/C (dose: 10.0 mg/kg/injection, schedule: Q01DX Z (ip), vehicle: saline) is reported as 94 % of control and the T/C (dose: 30.0 mg/kg/injection, schedule: Q01DX Z (ip), vehicle: saline) is reported as 93 % of control. The T/C (dose: 100.0 mg/kg/injection, schedule: Q01DX Z (ip), vehicle: saline) was 106 % of control.

With `CC(C)COC(=O)C1(C)OC1c1ccccc1` (centres undefined) the T/C (dose: 100.0 mg/kg/injection, schedule: Q04DX002 (ip), vehicle: saline) was 115 % of control, the T/C (dose: 200.0 mg/kg/injection, schedule: Q04DX002 (ip), vehicle: saline) was 104 % of control and the T/C (dose: 400.0 mg/kg/injection, schedule: Q04DX002 (ip), vehicle: saline) was 97 % of control.

In the case of `O=[N+]([O-])c1ccc(/C=C/c2ccc([N+](=O)[O-])cc2S(=O)(=O)O)c(S(=O)(=O)O)c1`, the T/C (dose: 100.0 mg/kg/injection, schedule: Q04DX003 (ip), vehicle: saline) is reported as 94 % of control, the T/C (dose: 200.0 mg/kg/injection, schedule: Q04DX003 (ip), vehicle: saline) is reported as 96 % of control and the T/C (dose: 400.0 mg/kg/injection, schedule: Q04DX003 (ip), vehicle: saline) is reported as 96 % of control.

With `CCCCC=C1CC(C)CC(C)C1` (centres undefined) the T/C (dose: 50.0 mg/kg/injection, schedule: Q01DX009 (ip), vehicle: saline with Tween-80) was 93 % of control and the T/C [3] was 93 % of control.

For `O=C(O)CSc1cc(-c2ccc(Cl)cc2)s[s+]1`, the T/C (dose: 3.12 mg/kg/injection, schedule: Q01DX009 (ip), vehicle: water) was 98 % of control, the T/C (dose: 6.25 mg/kg/injection, schedule: Q01DX009 (ip), vehicle: water) was 97 % of control and the T/C (dose: 12.5 mg/kg/injection, schedule: Q01DX009 (ip), vehicle: water) was 96 % of control. The T/C (dose: 12.5 mg/kg/injection, schedule: Q04DX003 (ip), vehicle: water) was 94 % of control, the T/C (dose: 25.0 mg/kg/injection, schedule: Q04DX003 (ip), vehicle: water) was 93 % of control and the T/C (dose: 50.0 mg/kg/injection, schedule: Q04DX003 (ip), vehicle: water) was 86 % of control.

`CCOC(=O)c1cc(C=O)oc1C` was tested, and the T/C [1] was 91 % of control, the T/C [2] was 97 % of control and the T/C [4] was 103 % of control. For the same compound, the T/C [5] was 95 % of control, the T/C [6] was 93 % of control and the T/C [7] was 90 % of control.

For `CNc1ccc(Cl)cc1-c1nc2ccccc2[nH]1`, the T/C [2] was 109 % of control, the T/C [4] was 102 % of control and the T/C (dose: 200.0 mg/kg/injection, schedule: Q01DX009 (ip), vehicle: Klucel (hydroxypropylcellulose) (HPC)) was 102 % of control.

`CC(C)c1ccc(/C=N/N=C(N)N)cc1` was tested, and the T/C (dose: 3.8 mg/kg/injection, schedule: Q01DX Z (ip), vehicle: other) was 100 % of control, the T/C (dose: 7.5 mg/kg/injection, schedule: Q01DX Z (ip), vehicle: other) was 102 % of control and the T/C (dose: 15.0 mg/kg/injection, schedule: Q01DX Z (ip), vehicle: other) was 94 % of control.

`Cc1c([N+](=O)[O-])cc(C(=O)Cl)cc1[N+](=O)[O-]` was tested, and the T/C (dose: 100.0 mg/kg/injection, schedule: Q04DX003 (ip), vehicle: other) was 106 % of control and the T/C (dose: 200.0 mg/kg/injection, schedule: Q04DX003 (ip), vehicle: other) was 109 % of control.

`CCCCCn1cnc2c(=O)[nH]c(N)nc21` was tested, and the T/C (dose: 50.0 mg/kg/injection, schedule: Q01DX001 (ip), vehicle: Klucel (hydroxypropylcellulose) (HPC)) was 105 % of control, the T/C (dose: 100.0 mg/kg/injection, schedule: Q01DX001 (ip), vehicle: Klucel (hydroxypropylcellulose) (HPC)) was 103 % of control and the T/C (dose: 200.0 mg/kg/injection, schedule: Q01DX001 (ip), vehicle: Klucel (hydroxypropylcellulose) (HPC)) was 106 % of control.

`CCNC(C)(C)C(=O)c1ccco1` was tested, and the T/C (dose: 50.0 mg/kg/injection, schedule: Q01DX009 (ip), vehicle: saline) was 94 % of control, the T/C (dose: 100.0 mg/kg/injection, schedule: Q01DX009 (ip), vehicle: saline) was 100 % of control and the T/C (dose: 200.0 mg/kg/injection, schedule: Q01DX009 (ip), vehicle: saline) was 94 % of control.

`O=C(O)CC1C=CCC1` (centres undefined) was tested, and the T/C [8] was 90 % of control.

`CC(C)c1ccc(N2C(=O)CSC2=S)cc1` was tested, and the T/C (dose: 100.0 mg/kg/injection, schedule: Q04DX002 (ip), vehicle: saline with Tween-80) was 97 % of control and the T/C (dose: 200.0 mg/kg/injection, schedule: Q04DX002 (ip), vehicle: saline with Tween-80) was 87 % of control.

For `CSc1ncnc2c1ncn2/N=C/C1OC(C)OCC1O` (centres undefined), the T/C [5] was 93 % of control, the T/C [6] was 98 % of control and the T/C [7] was 98 % of control.

`CC1=C(C)CC(C(Cl)(Cl)Cl)C([N+](=O)[O-])C1` (centres undefined) was tested, and the T/C [3] was 96 % of control.

With `CN(C)C(=O)NCc1ccco1` the T/C (dose: 12.5 mg/kg/injection, schedule: Q04DX003 (ip), vehicle: saline) was 97 % of control, the T/C [8] was 95 % of control and the T/C (dose: 50.0 mg/kg/injection, schedule: Q04DX003 (ip), vehicle: saline) was 101 % of control.

Source: PubChem BioAssay AID248 (DTP/NCI, 2004)
